From patent US11137397B2, “Peptides for blocking IL1RAP protein-protein interaction and uses thereof for treatment of disease” (Albert Einstein College of Medicine, priority 2014, dated 2021)
No end group written: not given here.

Tests used:
[1] = tested on: healthy bone marrow mononuclear cells (BMMNC); assay: Clonogenic assay in methylcellulose, healthy BMMNC; type: cell-based; details: 300 μM for 4 hours, colonies scored at 14 days
Description: FIG. 6. […] BMMNC were exposed to scrambled peptide (scrambled), or IL1RAP peptides (P1 and P2) for 4 hours at 300 μM concentrations or left untreated (UT) and evaluated for colony formation capacity in methylcellulose. Colonies were scored at 14 days. The results are expressed as total number of colonies/5×10^4 plated cells. Error bars represent the standard deviation of two replicates.
Cell viability was assessed at the indicated time points by trypan blue staining and manual cell counts. Viable cells were plated in methylcellulose (StemCell technologies H4434, or R&D HSC002SF) at 1000 cells/ml in 6-well plates for cell lines and at 5×10^4 cells/ml for bone marrow mononuclear cells (BMMNC). Cells were incubated at 37° C. and 5% CO2. Colonies were scored after 7 days or 14 days in culture for cell lines or primary cells, respectively.

[2] = tested on: THP-1 cells; assay: Flow cytometric determination of cell death (Annexin V/DAPI); type: cell-based, human; details: 300 μM
Description: FIG. 8. IL1RAP blockade causes cell death of IL1RAP dependent human leukemia cells. THP1 cells were exposed to 300 μM IL1RAP peptides (P1 and P2), scrambled control peptide (scrambled), peptide buffer (vehicle) or left untreated (UT) and evaluated for cell viability determined by Annexin V/DAPI staining and flow cytometry. The results are expressed as percentage of total cells.
In order to determine viability after peptide treatment, 1×10^4 THP-1 cells were washed with PBS and mixed with pre-diluted PE-conjugated Annexin V (BD Pharmigen) and DAPI. Cells were stained at room temperature for 15 minutes and suspended in 0.2 ml of Annexin V-FLUOS incubation buffer (Roche) for analysis.

[3] = tested on: THP-1 cells; assay: Cell morphology (cytospin, Diff-Quick staining); type: cell-based, human; details: THP-1 cells that remained viable after 24 hours of treatment
Description: FIG. 9. IL1RAP blockade changes in cell morphology of IL1RAP dependent human leukemia cells. THP1 cells were exposed to 100 μM IL1RAP peptide P2, scrambled control peptide (scrambled), peptide buffer (vehicle) or left untreated and evaluated for cell morphology.
1×10^4 THP-1 cells after treatment with peptides were rinsed with PBS and 0.1 ml of cell suspension was cytospun onto polylysine coated slides at minimum speed for 4 minutes in a cytocentrifuge (StatSpin Cytofuge). Slides were stained according to manufacturer's protocol using the Romanowsky staining Diff-Quick (IMEB) kit. Cells were imaged with an Axiovert 200M microscope (Zeiss) and Olympus SZ61 microscope.

Substance	inhibitory effects on healthy control bone marrow mononuclear cells (clonogenic potential) [1]	overall reduction in viability in comparison to the scrambled control peptide [2]	cell morphology [3]
AGDKDRLIVMENKPTHGID [Peptide P2, AGDKDRLIVMENKPTHGID]	no inhibitory effects	28%	–
AGDKDRLIVMENKPTRPV [Peptide P1, AGDKDRLIVMENKPTRPV]	no inhibitory effects	14%	–
LKDMPGRPNERDKVAlTV (LKDMPGRPNERDKVAITV; not fully specified) [scrambled peptide]	–	–	maintained a blast-like morphology
